{"source": "ChEMBL document CHEMBL1201862", "about": "“PubChem BioAssay data set” (2004)", "key": {"[1]": {"biological_target": "Heat shock protein HSP 90-alpha (Homo sapiens, UniProt P07900)", "assay_type": "functional, organism-based"}, "[2]": {"test": "A Cell Based Secondary Assay to Explore Cytotoxicity in HepG2 Cells of Compounds that Modulate Mycobacterium tuberculosis in Media Containing Glycerol versus Media without Glycerol (2).", "assay_type": "functional"}, "[3]": {"biological_target": "Neurotensin receptor type 1 (Homo sapiens, UniProt P30989)", "sequence (P30989 whole entry)": "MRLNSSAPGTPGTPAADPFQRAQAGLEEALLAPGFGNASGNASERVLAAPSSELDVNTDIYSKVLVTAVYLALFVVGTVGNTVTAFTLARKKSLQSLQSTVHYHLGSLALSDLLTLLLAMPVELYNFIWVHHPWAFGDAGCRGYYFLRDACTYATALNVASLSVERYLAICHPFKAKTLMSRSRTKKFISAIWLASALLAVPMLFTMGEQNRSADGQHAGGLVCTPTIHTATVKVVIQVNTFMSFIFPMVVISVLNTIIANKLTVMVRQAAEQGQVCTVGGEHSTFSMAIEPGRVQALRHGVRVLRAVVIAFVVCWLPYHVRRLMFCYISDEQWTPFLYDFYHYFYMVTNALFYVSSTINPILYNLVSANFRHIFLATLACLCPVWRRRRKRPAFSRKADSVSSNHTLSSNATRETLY", "assay_type": "functional"}, "[4]": {"biological_target": "Hepatocyte nuclear factor 4-alpha (Homo sapiens, UniProt P41235)", "sequence (P41235 whole entry)": "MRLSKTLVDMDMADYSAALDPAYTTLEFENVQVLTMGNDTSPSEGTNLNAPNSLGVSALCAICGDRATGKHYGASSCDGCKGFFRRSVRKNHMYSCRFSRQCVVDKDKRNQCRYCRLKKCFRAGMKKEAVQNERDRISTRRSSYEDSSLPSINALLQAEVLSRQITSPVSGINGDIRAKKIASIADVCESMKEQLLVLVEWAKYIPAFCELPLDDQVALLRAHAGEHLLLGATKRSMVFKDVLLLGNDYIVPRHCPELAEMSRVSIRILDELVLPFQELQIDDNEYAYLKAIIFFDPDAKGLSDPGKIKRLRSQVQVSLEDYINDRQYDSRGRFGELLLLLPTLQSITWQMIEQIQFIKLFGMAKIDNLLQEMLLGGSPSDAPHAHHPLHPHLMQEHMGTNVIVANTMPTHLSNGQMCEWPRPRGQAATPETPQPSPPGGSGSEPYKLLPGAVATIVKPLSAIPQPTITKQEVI", "assay_type": "functional, cell-based"}, "[5]": {"test": "Vero cell cytotoxicity, cytotoxicity control for M. tuberculosis inhibitor project, purified and synthesized samples, set 3 (AID 504684)", "assay_type": "functional", "details": "[…]"}, "[6]": {"test": "A Cell Based Secondary Assay to Explore Cytotoxicity in THP-1 Cells of Compounds that Modulate Mycobacterium tuberculosis in Media Containing Glycerol versus Media without Glycerol (2).", "assay_type": "functional"}, "[7]": {"test": "microbe, parasite or virus in culture", "assay_type": "functional", "details": "Mycobacterium tuberculosis"}, "[8]": {"test": "loss of viability in HepG2 cells – cell-based, CellTiter-Glo, cherry-picked, cytotoxicity control for Shn3 inhibitor project, dose response (AID 624134)", "assay_type": "functional"}, "[9]": {"tested_on": "HEK293", "test": "cells", "details": "Homo sapiens"}, "[10]": {"test": "reduction of Shn3 3'UTR-driven luciferase in osteoblasts – cell-based, Clone20 osteoblasts, firefly luciferase, cherry-picked, dose response (AID 624132)", "assay_type": "functional"}, "[11]": {"biological_target": "Beta Lactamase (Pseudomonas aeruginosa, UniProt Q932Y6)", "sequence (Q932Y6 whole entry)": "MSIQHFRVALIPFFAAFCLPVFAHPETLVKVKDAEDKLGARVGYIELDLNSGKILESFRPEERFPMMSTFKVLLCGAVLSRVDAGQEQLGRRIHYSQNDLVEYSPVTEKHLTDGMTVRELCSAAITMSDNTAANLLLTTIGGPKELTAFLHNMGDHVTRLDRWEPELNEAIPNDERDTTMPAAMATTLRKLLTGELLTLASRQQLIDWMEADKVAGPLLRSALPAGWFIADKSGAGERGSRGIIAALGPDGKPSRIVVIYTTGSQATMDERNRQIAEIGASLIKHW", "test": "BLA reporter interference, concentration series – BLA reporter cells, FRET fluorescence, artefact control for NOD2-RIPK2 interaction inhibitor project, dose response (AID 651552)", "assay_type": "functional, cell-based"}, "[12]": {"biological_target": "Beta-galactosidase (Escherichia coli, UniProt Q8VNN2)", "sequence (Q8VNN2 whole entry)": "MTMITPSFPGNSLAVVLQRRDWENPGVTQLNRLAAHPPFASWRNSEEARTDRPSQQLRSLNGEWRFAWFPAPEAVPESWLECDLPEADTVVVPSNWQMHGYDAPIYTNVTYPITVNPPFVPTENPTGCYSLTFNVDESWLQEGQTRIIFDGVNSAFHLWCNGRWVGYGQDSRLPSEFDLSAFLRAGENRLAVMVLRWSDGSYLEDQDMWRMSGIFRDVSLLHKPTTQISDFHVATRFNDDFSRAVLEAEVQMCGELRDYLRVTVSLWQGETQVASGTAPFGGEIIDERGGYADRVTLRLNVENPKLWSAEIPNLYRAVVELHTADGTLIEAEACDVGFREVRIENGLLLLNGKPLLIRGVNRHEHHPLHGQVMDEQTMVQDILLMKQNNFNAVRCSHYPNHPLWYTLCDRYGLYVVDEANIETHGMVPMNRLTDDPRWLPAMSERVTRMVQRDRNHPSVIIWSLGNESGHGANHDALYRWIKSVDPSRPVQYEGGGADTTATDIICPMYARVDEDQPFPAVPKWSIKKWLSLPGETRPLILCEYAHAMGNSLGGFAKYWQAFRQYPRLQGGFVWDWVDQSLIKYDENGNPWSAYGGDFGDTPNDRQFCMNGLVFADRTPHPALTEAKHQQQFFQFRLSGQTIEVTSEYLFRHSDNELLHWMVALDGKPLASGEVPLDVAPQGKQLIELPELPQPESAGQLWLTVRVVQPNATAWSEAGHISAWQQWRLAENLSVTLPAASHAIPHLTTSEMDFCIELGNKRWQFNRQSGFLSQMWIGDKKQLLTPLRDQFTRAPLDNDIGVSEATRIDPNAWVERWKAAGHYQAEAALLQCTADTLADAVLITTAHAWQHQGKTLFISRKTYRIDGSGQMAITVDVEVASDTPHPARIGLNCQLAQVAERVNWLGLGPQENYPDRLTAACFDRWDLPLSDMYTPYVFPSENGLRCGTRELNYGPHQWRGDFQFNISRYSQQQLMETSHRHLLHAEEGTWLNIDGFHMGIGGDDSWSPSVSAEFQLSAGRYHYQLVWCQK", "test": "detection-enzyme interference by beta-gal modulators – biochemical, E. coli enzyme, set 3, artefact control for CCR6 antagonist project, dose response (AID 504712)", "assay_type": "functional"}, "[13]": {"biological_target": "Paired box protein Pax-8 (Homo sapiens, UniProt Q06710)", "test": "PAX8 transcriptional activity inhibition in RMG-I – RMG-I cells, luciferase, cherry-pick, dose response (AID 687027);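 also: luciferase reporter driven by Pax8 target thyroperoxidase promoter measured by SteadyGlo luminescence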", "assay_type": "functional, cell-based"}, "[14]": {"tested_on": "HEK293", "test": "cells", "details": "Homo sapiens", "remark": "listed apart in the source"}, "[15]": {"test": "general cell-killing toxicity readout – plate reader, dry powder samples, cytotoxicity control for PAX8 inhibitor project, dose response (AID 743021)", "assay_type": "functional, cell-based"}, "[16]": {"test": "non-specific 3'UTR reporter inhibition in Clone20-Shn3RL – cell-based, Renilla luciferase, cherry-picked, counter-screen for Shn3 inhibitor project, dose response (AID 624133)", "assay_type": "functional"}, "[17]": {"test": "Fluorescence-based cell-based high throughput dose response assay for inhibitors of the interaction of nucleotide-binding oligomerization domain containing 2 (NOD2) and the receptor-interacting serine-threonine kinase 2 (RIPK2).", "assay_type": "functional", "details": "Homo sapiens"}, "[18]": {"biological_target": "Albumin (Bos taurus, UniProt P02769)", "sequence (P02769 whole entry)": "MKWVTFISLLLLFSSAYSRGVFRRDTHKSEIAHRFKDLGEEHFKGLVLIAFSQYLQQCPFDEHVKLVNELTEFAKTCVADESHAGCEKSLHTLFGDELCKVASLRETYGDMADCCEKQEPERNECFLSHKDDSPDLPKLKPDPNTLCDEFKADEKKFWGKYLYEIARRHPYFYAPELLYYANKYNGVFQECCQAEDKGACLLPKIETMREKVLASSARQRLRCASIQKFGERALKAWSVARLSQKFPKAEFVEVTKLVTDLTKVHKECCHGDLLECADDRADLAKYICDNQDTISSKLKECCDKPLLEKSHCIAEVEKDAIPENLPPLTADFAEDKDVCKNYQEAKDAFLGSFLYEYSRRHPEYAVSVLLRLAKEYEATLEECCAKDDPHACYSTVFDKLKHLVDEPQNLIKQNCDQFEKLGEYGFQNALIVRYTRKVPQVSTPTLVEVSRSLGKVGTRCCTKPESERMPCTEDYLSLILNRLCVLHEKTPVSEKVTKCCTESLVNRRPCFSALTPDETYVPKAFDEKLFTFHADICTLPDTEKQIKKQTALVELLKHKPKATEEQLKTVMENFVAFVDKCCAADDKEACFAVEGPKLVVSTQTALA", "test": "Counterscreen for inhibitors of T-cell receptor (TCR)-CD3 interaction: Fluorescence-based biochemical high throughput dose response assay to identify inhibitors of T-cell receptor (TCR)-CD3 interaction using a TAMRA-labeled BSA probe.", "assay_type": "functional"}, "[19]": {"biological_target": "DNA (cytosine-5)-methyltransferase 1 (Homo sapiens, UniProt P26358)", "test": "inhibition of DNA methylation by DNMT1 – biochemical, fluorescent molecular beacon, confirmation (AID 602386)", "assay_type": "functional"}, "[20]": {"biological_target": "T1, Probable nicotinate-nucleotide adenylyltransferase (Staphylococcus aureus (strain N315), UniProt P65502)", "T1 sequence (P65502 whole entry)": "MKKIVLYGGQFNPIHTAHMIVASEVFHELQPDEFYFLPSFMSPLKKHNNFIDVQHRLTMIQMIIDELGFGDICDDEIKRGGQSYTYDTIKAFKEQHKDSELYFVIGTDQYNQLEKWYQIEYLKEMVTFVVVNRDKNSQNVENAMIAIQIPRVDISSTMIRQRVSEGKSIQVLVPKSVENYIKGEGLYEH", "assay_type": "functional, Staphylococcus aureus subsp. aureus N315", "details": "read-out: IC50_Mean"}, "[21]": {"biological_target": "Kallikrein-7 (Homo sapiens, UniProt P49862)", "sequence (P49862 whole entry)": "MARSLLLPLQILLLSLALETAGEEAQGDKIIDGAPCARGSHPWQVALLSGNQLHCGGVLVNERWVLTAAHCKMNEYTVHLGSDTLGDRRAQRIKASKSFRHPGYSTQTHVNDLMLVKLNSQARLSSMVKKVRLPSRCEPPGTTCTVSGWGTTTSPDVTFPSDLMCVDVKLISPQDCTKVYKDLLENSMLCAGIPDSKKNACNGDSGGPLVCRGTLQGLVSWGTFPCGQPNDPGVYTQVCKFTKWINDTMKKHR", "test": "Fluorescence Intensity-based biochemical primary high throughput dose response assay to identify activators of kallikrein-7 (K7) zymogen."}, "[22]": {"biological_target": "T1, Probable nicotinate-nucleotide adenylyltransferase", "assay_type": "functional, Staphylococcus aureus subsp. aureus N315"}, "[23]": {"tested_on": "H4", "test": "Luminescence Cell-Based Dose Response HTS to Identify Activators of 5'UTR Stem-Loop Driven Prion Protein mRNA Translation in H4 Neuroglioblastoma Cells. [Related pubchem assays: 1829 (Project Summary), 1814 (Primary HTS)]", "assay_type": "functional", "details": "Homo sapiens"}, "[24]": {"test": "Counterscreen for activators of the function of SWI/SNF related, matrix associated, actin dependent regulator of chromatin, subfamily a, member 2 (SMARCA2, BRM): Luminescence-based cell-based high throughput dose response assay to identify non-selective compounds using the VP16 reporter assay.", "assay_type": "functional"}, "[25]": {"biological_target": "T2, DNA repair protein RAD52 homolog (Homo sapiens, UniProt P43351)", "T2 sequence (P43351 whole entry)": "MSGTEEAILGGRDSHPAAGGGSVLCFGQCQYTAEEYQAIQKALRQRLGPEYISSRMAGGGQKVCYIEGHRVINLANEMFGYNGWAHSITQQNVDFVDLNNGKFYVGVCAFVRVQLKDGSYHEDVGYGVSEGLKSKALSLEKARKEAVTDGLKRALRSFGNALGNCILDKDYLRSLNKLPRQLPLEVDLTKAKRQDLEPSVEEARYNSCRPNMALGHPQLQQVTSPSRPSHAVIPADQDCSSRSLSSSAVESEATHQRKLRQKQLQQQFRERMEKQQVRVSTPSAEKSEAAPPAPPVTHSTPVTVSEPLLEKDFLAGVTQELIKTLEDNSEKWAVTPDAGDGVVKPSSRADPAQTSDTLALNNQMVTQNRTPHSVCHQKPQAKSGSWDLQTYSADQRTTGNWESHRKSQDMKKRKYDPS", "assay_type": "functional, biochemical"}, "[26]": {"test": "Luminescence Cell-Based Dose Confirmation HTS to Identify Activators of 5'UTR Stem-Loop Driven Alpha-Synuclein mRNA Translation in H4 Neuroglioblastoma Cells. [Related pubchem assays: 1829 (Project Summary), 1814 (Primary HTS)]", "assay_type": "functional"}, "[27]": {"biological_target": "SWI/SNF-related matrix-associated actin-dependent regulator of chromatin subfamily A member 2 (Homo sapiens, UniProt P51531)", "sequence (P51531 whole entry)": "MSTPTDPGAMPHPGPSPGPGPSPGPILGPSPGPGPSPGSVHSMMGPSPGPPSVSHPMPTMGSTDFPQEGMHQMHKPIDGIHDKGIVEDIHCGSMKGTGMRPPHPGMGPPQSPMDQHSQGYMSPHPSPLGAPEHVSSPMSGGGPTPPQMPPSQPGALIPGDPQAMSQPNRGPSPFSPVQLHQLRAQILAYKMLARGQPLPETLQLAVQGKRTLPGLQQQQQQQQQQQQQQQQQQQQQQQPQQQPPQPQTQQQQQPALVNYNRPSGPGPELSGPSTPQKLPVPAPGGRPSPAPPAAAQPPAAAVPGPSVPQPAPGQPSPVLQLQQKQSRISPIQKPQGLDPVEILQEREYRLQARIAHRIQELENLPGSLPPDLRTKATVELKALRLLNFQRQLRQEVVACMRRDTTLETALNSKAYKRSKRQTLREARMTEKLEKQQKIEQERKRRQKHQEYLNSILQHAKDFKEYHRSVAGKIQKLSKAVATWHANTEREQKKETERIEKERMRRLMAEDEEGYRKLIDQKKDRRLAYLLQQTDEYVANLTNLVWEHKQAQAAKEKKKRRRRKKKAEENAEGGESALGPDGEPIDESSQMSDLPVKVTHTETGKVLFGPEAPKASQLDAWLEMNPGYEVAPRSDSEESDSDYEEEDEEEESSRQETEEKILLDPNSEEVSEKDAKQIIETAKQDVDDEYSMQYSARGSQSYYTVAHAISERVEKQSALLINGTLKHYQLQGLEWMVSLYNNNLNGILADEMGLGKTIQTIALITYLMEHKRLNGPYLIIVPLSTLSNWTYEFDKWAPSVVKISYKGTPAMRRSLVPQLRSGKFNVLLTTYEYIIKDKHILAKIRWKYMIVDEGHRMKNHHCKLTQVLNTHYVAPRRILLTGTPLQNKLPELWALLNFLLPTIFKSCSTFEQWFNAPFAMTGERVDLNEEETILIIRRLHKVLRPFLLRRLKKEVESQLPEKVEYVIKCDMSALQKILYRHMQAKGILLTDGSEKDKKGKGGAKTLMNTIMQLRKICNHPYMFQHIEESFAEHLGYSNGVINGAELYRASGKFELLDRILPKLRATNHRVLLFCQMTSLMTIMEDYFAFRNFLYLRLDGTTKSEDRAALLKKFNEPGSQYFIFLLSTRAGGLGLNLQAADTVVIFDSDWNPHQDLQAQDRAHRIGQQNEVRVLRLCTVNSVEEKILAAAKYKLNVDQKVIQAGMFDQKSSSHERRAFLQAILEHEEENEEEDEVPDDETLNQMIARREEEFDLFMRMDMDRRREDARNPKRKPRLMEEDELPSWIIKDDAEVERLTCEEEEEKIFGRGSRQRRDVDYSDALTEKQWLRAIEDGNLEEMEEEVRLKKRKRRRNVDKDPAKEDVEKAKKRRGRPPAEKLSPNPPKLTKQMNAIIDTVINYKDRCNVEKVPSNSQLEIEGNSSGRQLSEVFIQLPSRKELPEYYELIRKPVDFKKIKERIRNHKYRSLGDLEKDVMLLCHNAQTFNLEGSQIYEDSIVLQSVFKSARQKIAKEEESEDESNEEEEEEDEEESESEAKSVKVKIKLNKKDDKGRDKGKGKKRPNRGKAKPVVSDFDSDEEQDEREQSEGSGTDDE", "test": "Luminescence-based cell-based high throughput dose response assay to identify activators of the function of SWI/SNF related, matrix associated, actin dependent regulator of chromatin, subfamily a, member 2 (SMARCA2, BRM).", "assay_type": "functional"}, "[28]": {"biological_target": "T3, DNA repair and recombination protein RAD54-like (Homo sapiens, UniProt Q92698)", "T3 sequence (Q92698 whole entry)": "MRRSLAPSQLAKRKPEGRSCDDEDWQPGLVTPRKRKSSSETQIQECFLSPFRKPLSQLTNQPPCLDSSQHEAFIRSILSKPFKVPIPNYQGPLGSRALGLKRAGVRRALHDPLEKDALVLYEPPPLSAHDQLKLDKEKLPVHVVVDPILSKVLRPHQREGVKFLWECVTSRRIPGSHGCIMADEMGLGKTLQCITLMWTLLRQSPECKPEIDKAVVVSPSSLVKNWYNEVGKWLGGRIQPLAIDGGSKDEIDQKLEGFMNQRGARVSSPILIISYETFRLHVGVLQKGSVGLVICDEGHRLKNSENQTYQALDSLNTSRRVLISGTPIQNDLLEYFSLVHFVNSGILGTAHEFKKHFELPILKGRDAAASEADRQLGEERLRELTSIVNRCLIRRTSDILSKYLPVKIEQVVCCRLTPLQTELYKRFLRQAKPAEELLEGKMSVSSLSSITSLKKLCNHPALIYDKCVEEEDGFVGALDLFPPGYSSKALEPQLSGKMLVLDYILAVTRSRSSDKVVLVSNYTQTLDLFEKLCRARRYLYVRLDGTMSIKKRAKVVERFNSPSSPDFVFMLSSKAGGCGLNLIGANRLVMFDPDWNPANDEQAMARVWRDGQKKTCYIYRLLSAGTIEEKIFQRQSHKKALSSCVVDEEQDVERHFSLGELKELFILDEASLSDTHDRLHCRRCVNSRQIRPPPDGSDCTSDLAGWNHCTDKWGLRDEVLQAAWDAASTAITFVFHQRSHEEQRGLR", "test": "RAD54 Holliday junction migration blockers – biochemical, fluorescence, cherry-picked samples, dose series, confirmation (AID 651657)", "assay_type": "functional"}, "[29]": {"test": "acridine orange displacement from DNA – biochemical, fluorescence polarization, cherry-pick, artefact control for RAD54 inhibitor project, dose response (AID 651673)", "assay_type": "functional"}, "[30]": {"test": "Luminescence Cell-Based Dose Response HTS to Identify Activators of Luciferase Translation or Activity in H4 […] Cells. [Related pubchem assays: 1829 (Project Summary), 1814 (Primary HTS)]", "assay_type": "functional"}}, "note": "The source made the active and inactive calls.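 For IC50 Mean in this document: confirmatory dose-response retesting of NadD inhibitor hits first found in an ultra-high-throughput screen.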"}
{"smiles": "COC(=O)c1cc(=O)n(-c2ccc(F)cc2)/c(=N/c2ccc(F)cc2)s1", "values": [{"measurement": "AC50", "setting": "[1]", "result": "8.18 µM (active)"}, {"measurement": "CC50", "setting": "[2]", "result": "24.1 µM (active)"}, {"measurement": "EC50", "setting": "[3]", "result": "11.1 µM (active)"}, {"measurement": "IC50", "setting": "[4]", "result": "4.1 µM (active)"}, {"measurement": "CC50", "setting": "[5]", "result": "12.9 µM (active)"}, {"measurement": "CC50", "setting": "[6]", "result": "21.5 µM (active)"}, {"measurement": "CC50", "setting": "[7]", "result": "13.9 µM (active)"}]}
{"smiles": "C=C1CC(Cn2cc(Br)c(=O)[nH]c2=O)(c2ccc(-c3ccccc3)cc2)OC1=O", "note": "(stereo not given)", "values": [{"measurement": "AC50", "setting": "[8]", "result": "13.6 µM (active)"}, {"measurement": "EC50", "setting": "[9]", "result": "> 59.7 µM (inactive)"}, {"measurement": "AC50", "setting": "[10]", "result": "2.67 µM (active)"}, {"measurement": "IC50", "setting": "[11]", "result": "12.2 µM (inactive)"}, {"measurement": "IC50", "setting": "[12]", "result": "> 66.6 µM (inactive)"}, {"measurement": "AC50", "setting": "[13]", "result": "6.49 µM (active)"}, {"measurement": "EC50", "setting": "[14]", "result": "> 59.7 µM (inactive)"}, {"measurement": "AC50", "setting": "[15]", "result": "55.6 µM (active)"}, {"measurement": "AC50", "setting": "[16]", "result": "4.16 µM (active)"}, {"measurement": "IC50", "setting": "[17]", "result": "2.2 µM (active)"}]}
{"smiles": "COC(=O)C1CCN(C(=O)c2cc(-c3ccco3)nc3ccccc23)CC1", "values": [{"measurement": "IC50", "setting": "[18]", "result": "> 94.1 µM (inactive)"}, {"measurement": "IC50", "setting": "[19]", "result": "7.31 µM (active)"}, {"measurement": "IC50", "setting": "[20]", "result": "44.6 µM (active)"}, {"measurement": "EC50", "setting": "[21]", "result": "> 69.5 µM (inactive)"}, {"measurement": "IC50", "setting": "[22]", "result": "18.8 µM (active)"}]}
{"smiles": "CCN(CC)CCn1c2ccccc2c2nc3ccccc3nc21", "values": [{"measurement": "EC50", "setting": "[23]", "result": "29.6 µM (active)"}, {"measurement": "EC50", "setting": "[24]", "result": "> 91.1 µM (inactive)"}, {"measurement": "AC50", "setting": "[25]", "result": "3.27 µM (active)"}, {"measurement": "EC50", "setting": "[26]", "result": "31.8 µM (active)"}, {"measurement": "EC50", "setting": "[27]", "result": "10.1 µM (inactive)"}, {"measurement": "AC50", "setting": "[28]", "result": "7.12 µM (active)"}, {"measurement": "AC50", "setting": "[29]", "result": "64 µM (active)"}, {"measurement": "EC50", "setting": "[30]", "result": "15.1 µM (active)"}]}
